The text below walks through data of patent publication US9981975B2, “Pyrrolotriazine compounds as tam inhibitors” (Incyte Corporation, priority 2016, dated 2018).

One experiment deals with Tyro3 (Homo sapiens (Human), UniProt Q06418). In words: TAM Enzymatic Assay (HTRF), Tyro3. The experiment is classed as biochemical. As to conditions: Tyro3, 60 min, room temperature. The protocol: (§1) The kinase assay buffer contained 50 mM HEPES, pH7.5, 10 mM MgCl2, 1 mM EGTA, 0.01% NP-40 and 2 mM DTT. 0.1 ul test compounds dissolved in DMSO were transferred from compound plates to white 384-well assay plates (Greiner […] plates). […] 4 ul enzyme solution (or assay buffer for the enzyme blank) was added to the appropriate wells in each plate, and then 4 ul/well substrate solution was added to initiate the reaction. The plate was protected from light and incubated at room temperature for 60 min. […] The plate was incubated for 1 h at room temperature, and HTRF (homogenous time resolved fluorescence) signal was measured on a PHERAstar FS plate reader (BMG labtech). Percentage of inhibition was calculated for each concentration and IC50 value was generated from curve fitting with GraphPad Prism software.
Tyro3, sequence (Q06418 41-890): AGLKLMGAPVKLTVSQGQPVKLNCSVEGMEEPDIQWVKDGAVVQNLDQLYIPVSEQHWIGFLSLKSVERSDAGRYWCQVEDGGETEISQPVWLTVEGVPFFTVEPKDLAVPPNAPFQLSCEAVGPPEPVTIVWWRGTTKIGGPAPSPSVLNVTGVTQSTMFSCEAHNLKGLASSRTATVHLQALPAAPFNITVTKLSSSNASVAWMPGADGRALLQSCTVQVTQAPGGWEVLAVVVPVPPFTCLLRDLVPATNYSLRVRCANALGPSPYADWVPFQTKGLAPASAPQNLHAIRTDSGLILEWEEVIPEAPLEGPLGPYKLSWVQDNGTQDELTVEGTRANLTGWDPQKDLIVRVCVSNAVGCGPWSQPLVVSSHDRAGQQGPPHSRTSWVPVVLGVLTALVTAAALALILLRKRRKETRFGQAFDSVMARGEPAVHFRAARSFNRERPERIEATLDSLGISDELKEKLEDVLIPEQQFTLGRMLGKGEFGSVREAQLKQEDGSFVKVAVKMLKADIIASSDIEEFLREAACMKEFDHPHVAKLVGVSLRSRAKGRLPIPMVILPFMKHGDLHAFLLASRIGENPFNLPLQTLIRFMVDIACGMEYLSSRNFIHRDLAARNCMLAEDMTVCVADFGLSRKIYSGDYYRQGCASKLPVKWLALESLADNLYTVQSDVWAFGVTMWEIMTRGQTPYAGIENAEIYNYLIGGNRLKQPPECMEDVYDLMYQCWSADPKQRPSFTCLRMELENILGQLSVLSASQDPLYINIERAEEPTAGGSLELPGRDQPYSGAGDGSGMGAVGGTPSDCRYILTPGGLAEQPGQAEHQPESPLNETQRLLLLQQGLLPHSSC
(In TR-FRET formats the signal depends on donor and acceptor labels being close together.)

A further experiment addresses phosphor-Axl (Homo sapiens (Human), UniProt P30530). Description: TAM Enzymatic Assay (HTRF), Axl. In kind it is biochemical. As to conditions: recombinant autophosphorylated Axl, 60 min, room temperature. The procedure: Autophosphorylation of Axl was carried out by incubating the recombinant Axl protein (Life Technologies, PV4275) in buffer containing 50 mM Tris, pH7.5, 0.2 mg/ml Axl, 5 mM ATP, 20 mM MgCl2 and 2 mM DTT at room temperature for 1 hour.
as §1

phosphor-Axl, sequence (P30530 26-894): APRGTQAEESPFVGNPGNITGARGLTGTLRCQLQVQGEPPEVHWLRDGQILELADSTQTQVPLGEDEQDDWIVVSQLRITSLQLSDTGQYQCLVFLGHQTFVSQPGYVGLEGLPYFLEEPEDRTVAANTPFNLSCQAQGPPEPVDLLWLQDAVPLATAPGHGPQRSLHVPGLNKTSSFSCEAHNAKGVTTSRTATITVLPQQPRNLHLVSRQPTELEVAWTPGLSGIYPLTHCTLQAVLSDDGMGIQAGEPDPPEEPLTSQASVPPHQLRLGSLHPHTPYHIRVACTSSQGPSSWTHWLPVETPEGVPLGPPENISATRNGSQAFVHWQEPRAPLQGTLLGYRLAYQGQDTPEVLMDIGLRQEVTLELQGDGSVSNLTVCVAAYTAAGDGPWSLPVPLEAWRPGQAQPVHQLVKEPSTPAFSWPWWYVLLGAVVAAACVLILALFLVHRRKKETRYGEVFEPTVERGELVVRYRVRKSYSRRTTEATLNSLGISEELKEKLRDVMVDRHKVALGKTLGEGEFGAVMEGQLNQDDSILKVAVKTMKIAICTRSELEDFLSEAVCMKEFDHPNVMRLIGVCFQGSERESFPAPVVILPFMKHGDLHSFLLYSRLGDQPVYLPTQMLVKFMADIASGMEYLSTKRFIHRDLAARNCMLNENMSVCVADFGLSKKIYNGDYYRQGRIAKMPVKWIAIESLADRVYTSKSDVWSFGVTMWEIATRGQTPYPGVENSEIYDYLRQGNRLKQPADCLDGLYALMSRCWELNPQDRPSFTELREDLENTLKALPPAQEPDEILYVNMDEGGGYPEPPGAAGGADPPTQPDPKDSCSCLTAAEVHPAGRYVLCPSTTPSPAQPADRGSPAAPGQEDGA

Broadly, the IC50 is the concentration at which inhibition is half-maximal. Compound `Cc1cc(-c2ccc(NC(=O)c3cccn(-c4ccccc4)c3=O)cc2)c2c(N)ncnn12` [Example 8, N-[4-(4-Amino-7-methylpyrrolo[2,1-f][1,2,4]triazin-5-yl)phenyl]-2-oxo-1-phenyl-1,2-dihydropyridine-3-carboxamide] yielded an IC50 against Tyro3 of over 100 nM. Turning to `COc1ccn(-c2ccccc2)c(=O)c1C(=O)Nc1ccc(-c2c(Br)c(C3CCN(C(=O)C(C)C)CC3)n3ncnc(N)c23)cc1` [Example 100, N-(4-(4-Amino-6-bromo-7-(1-isobutyrylpiperidin-4-yl)pyrrolo[1,2-f][1,2,4]triazin-5-yl)phenyl)-4-methoxy-2-oxo-1-phenyl-1,2-dihydropyridine-3-carboxamide], the half-inhibitory concentration (IC50) at Tyro3 is over 100 nM. For the compound `CCN(C)C(=O)N1CCC(c2cc(-c3ccc(NC(=O)c4cc5c(n(-c6ccc(F)cc6)c4=O)CCCC5=O)cc3)c3c(N)ncnn23)CC1` [Example 57, N-{4-[4-Amino-7-(1-{[ethyl(methyl)amino]carbonyl}piperidin-4-yl)pyrrolo[2,1-f][1,2,4]triazin-5-yl]phenyl}-1-(4-fluorophenyl)-2,5-dioxo-1,2,5,6,7,8-hexahydroquinoline-3-carboxamide], the IC50 on phosphor-Axl was at most 5 nM; at Tyro3 it was over 100 nM. As for `CS(=O)(=O)N1CCC(c2cc(-c3ccc(NC(=O)c4cccn(-c5ccccc5)c4=O)cc3)c3c(N)ncnn23)CC1` [Example 40, N-(4-{4-Amino-7-[1-(methylsulfonyl)piperidin-4-yl]pyrrolo[2,1-f][1,2,4]triazin-5-yl}phenyl)-2-oxo-1-phenyl-1,2-dihydropyridine-3-carboxamide], the IC50 on Tyro3 was over 100 nM.

Consider `Nc1ncnn2c(C3CCN(CCO)CC3)cc(-c3ccc(NC(=O)c4cc5c(n(-c6ccc(F)cc6)c4=O)CCCC5=O)cc3F)c12` [Example 60, N-(4-{4-Amino-7-[1-(2-hydroxyethyl)piperidin-4-yl]pyrrolo[2,1-f][1,2,4]triazin-5-yl}-3-fluorophenyl)-1-(4-fluorophenyl)-2,5-dioxo-1,2,5,6,7,8-hexahydroquinoline-3-carboxamide], for which, on phosphor-Axl, the IC50 was at most 5 nM. On to `CC(C)n1cc(C(=O)Nc2ccc(-c3cc(C4CCN(C5CCN(C)C5=O)CC4)n4ncnc(N)c34)cc2)c(=O)n(-c2ccccc2)c1=O` (racemic) [Example 82, N-(4-(4-Amino-7-(1-(1-methyl-2-oxopyrrolidin-3-yl)piperidin-4-yl)pyrrolo[1,2-f][1,2,4]triazin-5-yl)phenyl)-1-isopropyl-2,4-dioxo-3-phenyl-1,2,3,4-tetrahydropyrimidine-5-carboxamide], for which, on Tyro3, the IC50 is 10 to 100 nM. At Tyro3, `Cc1c(C(N)=O)cc(C(=O)Nc2ccc(-c3cc(C4CCN(C(=O)C(C)C)CC4)n4ncnc(N)c34)cc2)c(=O)n1-c1ccccc1` [Example 111a, N^3-(4-(4-Amino-7-(1-isobutyrylpiperidin-4-yl)pyrrolo[2,1-f][1,2,4]triazin-5-yl)phenyl)-6-methyl-2-oxo-1-phenyl-1,2-dihydropyridine-3,5-dicarboxamide] yielded an IC50 of over 100 nM. On Tyro3, `CCc1cc(-c2ccc(NC(=O)c3cc4c(n(-c5ccc(F)cc5)c3=O)CCCC4=O)cc2)c2c(N)ncnn12` [Example 1, N-[4-(4-Amino-7-ethylpyrrolo[2,1-f][1,2,4]triazin-5-yl)phenyl]-1-(4-fluorophenyl)-2,5-dioxo-1,2,5,6,7,8-hexahydroquinoline-3-carboxamide] had an IC50 of over 100 nM. In turn, `CCc1cc(-c2ccc(NC(=O)c3cccn([C@@H](CO)c4ccccc4)c3=O)cc2)c2c(N)ncnn12` [Example 2, N-[4-(4-Amino-7-ethylpyrrolo[2,1-f][1,2,4]triazin-5-yl)phenyl]-1-[(1R)-2-hydroxy-1-phenylethyl]-2-oxo-1,2-dihydropyridine-3-carboxamide] showed an IC50 against Tyro3 of over 100 nM.

Regarding `CC(C)C(=O)N1CCC(c2cc(-c3ccc(NC(=O)c4cn(C(C)C)c(=O)n(-c5cccc(F)c5)c4=O)cc3)c3c(N)ncnn23)CC1` [Example 71, N-(4-(4-Amino-7-(1-isobutyrylpiperidin-4-yl)pyrrolo[1,2-f][1,2,4]triazin-5-yl)phenyl)-3-(3-fluorophenyl)-1-isopropyl-2,4-dioxo-1,2,3,4-tetrahydropyrimidine-5-carboxamide], the IC50 on phosphor-Axl is at most 5 nM. Turning to `COC(=O)N1CCC(c2cc(-c3ccc(NC(=O)c4cccn(-c5ccccc5)c4=O)cc3)c3c(N)ncnn23)CC1` [Example 36, Methyl 4-[4-amino-5-(4-{[(2-oxo-1-phenyl-1,2-dihydropyridin-3-yl)carbonyl]amino}phenyl)pyrrolo[2,1-f][1,2,4]triazin-7-yl]piperidine-1-carboxylate], the IC50 at Tyro3 was over 100 nM.

Turning to `CN1CCC(c2cc(-c3ccc(NC(=O)c4cccn(-c5ccccc5)c4=O)cc3)c3c(N)ncnn23)CC1` [Example 20, N-{4-[4-Amino-7-(1-methylpiperidin-4-yl)pyrrolo[2,1-f][1,2,4]triazin-5-yl]phenyl}-2-oxo-1-phenyl-1,2-dihydropyridine-3-carboxamide], the IC50 against Tyro3 was over 100 nM. In the case of `Cc1ccc(-c2ccc(C(=O)Nc3ccc(-c4cc(C5CCN(C(=O)C(C)C)CC5)n5ncnc(N)c45)cc3)c(=O)n2-c2ccccc2)cn1` [Example 105, N-(4-(4-Amino-7-(1-isobutyrylpiperidin-4-yl)pyrrolo[2,1-f][1,2,4]triazin-5-yl)phenyl)-6′-methyl-6-oxo-1-phenyl-1,6-dihydro-[2,3′-bipyridine]-5-carboxamide], the IC50 on phosphor-Axl is at most 5 nM. As for `Cc1c(-c2ccnn2C)c(=O)c(C(=O)Nc2ccc(-c3cc(C4CCN(C(=O)C(C)C)CC4)n4ncnc(N)c34)cc2)cn1C(C)C` [Example 97, N-(4-(4-Amino-7-(1-isobutyrylpiperidin-4-yl)pyrrolo[2,1-f][1,2,4]triazin-5-yl)phenyl)-1-isopropyl-6-methyl-5-(1-methyl-1H-pyrazol-5-yl)-4-oxo-1,4-dihydropyridine-3-carboxamide], the IC50 at phosphor-Axl is at most 5 nM. On to `Cc1nn(C)c(C)c1-c1cc(-c2ccc(NC(=O)c3cn(C(C)C)c(=O)n(-c4cccc(F)c4)c3=O)cc2)c2c(N)ncnn12` [Example 84, N-(4-(4-Amino-7-(1,3,5-trimethyl-1H-pyrazol-4-yl)pyrrolo[1,2-f][1,2,4]triazin-5-yl)phenyl)-3-(3-fluorophenyl)-1-isopropyl-2,4-dioxo-1,2,3,4-tetrahydropyrimidine-5-carboxamide], for which the IC50 at Tyro3 was over 100 nM. For the compound `Cc1cc(-c2ccc(NC(=O)c3cccn(-c4ccc(F)cc4)c3=O)cc2F)c2c(N)ncnn12` [Example 11, N-[4-(4-Amino-7-methylpyrrolo[2,1-f][1,2,4]triazin-5-yl)-3-fluorophenyl]-1-(4-fluorophenyl)-2-oxo-1,2-dihydropyridine-3-carboxamide], on Tyro3, the IC50 is over 100 nM. In turn, `CC(C)C(=O)N1CCC(c2cc(-c3ccc(NC(=O)c4cn(C(C)C)c(=O)n(C5CCCCC5)c4=O)cc3)c3c(N)ncnn23)CC1` [Example 90, N-(4-(4-Amino-7-(1-isobutyrylpiperidin-4-yl)pyrrolo[2,1-f][1,2,4]triazin-5-yl)phenyl)-3-cyclohexyl-1-isopropyl-2,4-dioxo-1,2,3,4-tetrahydropyrimidine-5-carboxamide] had an IC50 on Tyro3 of over 100 nM.

On Tyro3, `Cc1cc(-c2ccc(NC(=O)c3cccn(-c4ccccc4)c3=O)cc2F)c2c(N)ncnn12` [Example 10, N-[4-(4-Amino-7-methylpyrrolo[2,1-f][1,2,4]triazin-5-yl)-3-fluorophenyl]-2-oxo-1-phenyl-1,2-dihydropyridine-3-carboxamide] came in with a concentration for half-maximal inhibition (IC50) of over 100 nM. Same read-out and setting: for `CC(C)n1cc(C(=O)Nc2ccc(-c3cc(C(=O)N(C)C)n4ncnc(N)c34)cc2)c(=O)n(-c2cccc(F)c2)c1=O` [Example 86, 4-Amino-5-(4-(3-(3-fluorophenyl)-1-isopropyl-2,4-dioxo-1,2,3,4-tetrahydropyrimidine-5-carboxamido)phenyl)-N,N-dimethylpyrrolo[2,1-f][1,2,4]triazine-7-carboxamide] the value was over 100 nM. Consider `CCN(C)C(=O)N1CCC(c2cc(-c3ccc(NC(=O)c4cn(C(C)C)c(=O)n(-c5ccc(F)cc5)c4=O)cc3)c3c(N)ncnn23)CC1` [Example 66, N-(4-(4-Amino-7-(1-(ethyl(methyl)carbamoyl)piperidin-4-yl)pyrrolo[1,2-f][1,2,4]triazin-5-yl)phenyl)-3-(4-fluorophenyl)-1-isopropyl-2,4-dioxo-1,2,3,4-tetrahydropyrimidine-5-carboxamide], for which the IC50 on phosphor-Axl is at most 5 nM.

At Tyro3, `CCN(C)C(=O)N1CCC(c2cc(-c3ccc(NC(=O)c4cccn(-c5ccc(F)cc5)c4=O)cc3)c3c(N)ncnn23)CC1` [Example 56, N-{4-[4-Amino-7-(1-{[ethyl(methyl)amino]carbonyl}piperidin-4-yl)pyrrolo[2,1-f][1,2,4]triazin-5-yl]phenyl}-1-(4-fluorophenyl)-2-oxo-1,2-dihydropyridine-3-carboxamide] returned an IC50 of over 100 nM.

As for `Nc1ncnn2c(C3CCOCC3)cc(-c3ccc(NC(=O)c4cccn(-c5ccccc5)c4=O)cc3)c12` [Example 13, N-{4-[4-Amino-7-(tetrahydro-2H-pyran-4-yl)pyrrolo[2,1-f][1,2,4]triazin-5-yl]phenyl}-2-oxo-1-phenyl-1,2-dihydropyridine-3-carboxamide], the IC50 against Tyro3 is over 100 nM.
